Source: patent US10968178B2, “IP6K inhibitors” (TAKEDA PHARMACEUTICAL COMPANY LIMITED, priority 2017, dated 2021)

How the values were obtained:
Assay type in all cases: biochemical
[1] = biological target: T1, human IP6K2 (Homo sapiens, UniProt Q9UHH9); test: IP6K enzyme inhibitory assay (ADP-Glo Kinase Assay), human IP6K2; details: compound concentration 0.1 μM; read-out: ADP-Glo method inhibitory rate (%) human IP6K2
T1 construct: human IP6K2 (1-426) gene; GST; made in house; host or cells: Sf-9 insect cells
T1 sequence (Q9UHH9 1-426): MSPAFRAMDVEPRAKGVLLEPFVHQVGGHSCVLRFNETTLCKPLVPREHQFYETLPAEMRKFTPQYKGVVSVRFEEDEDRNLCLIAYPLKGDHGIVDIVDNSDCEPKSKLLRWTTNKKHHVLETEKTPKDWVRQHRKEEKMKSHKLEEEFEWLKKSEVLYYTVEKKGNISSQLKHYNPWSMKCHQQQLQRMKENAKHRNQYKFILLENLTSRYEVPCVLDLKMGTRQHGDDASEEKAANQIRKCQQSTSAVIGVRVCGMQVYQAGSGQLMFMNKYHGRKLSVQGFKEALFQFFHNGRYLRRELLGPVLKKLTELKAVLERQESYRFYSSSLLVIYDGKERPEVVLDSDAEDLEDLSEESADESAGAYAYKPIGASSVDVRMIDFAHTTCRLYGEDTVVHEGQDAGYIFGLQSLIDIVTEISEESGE
Experimental: (§1) IP6K Enzyme Inhibitory Assay
(§2) Human IP6K3 enzyme was prepared by transducing human IP6K3 (1-410) gene into BL21 (DE3) Escherichia coli and purifying by Ni-NTA (nickel-nitrilotriacetic acid) affinity column. […] The enzymes were used after preservation at −70° C. The IP6K enzyme inhibitory activity of the test compound was measured by the following experiment method and using ADP-Glo™ Kinase Assay (manufactured by Promega). A test compound diluted with an assay buffer (20 mM HEPES (pH 7.5), 6 mM MgCl2, 0.01% Tween-20, 1 mM DTT) was first added by 2 μL to a 384 well plate. […] The IP6K enzyme solution diluted with the assay buffer was added by 2 μL to start the enzyme reaction. Incubation was performed at room temperature for a given time (120 min for rat IP6K3 alone, 60 min for others). After incubation at room temperature, ADP-Glo solution prepared according to the protocol of Promega was added by 3 μL to the 384 well plate and reacted at room temperature for 30 min. Thereafter, Kinase-Detection solution was added by 6 μL to the 384 well plate and reacted at room temperature for 60 min. After the reaction, the luminescence intensity was measured by a plate reader Envision (manufactured by PerkinElmer).

[2] = biological target: T2, human IP6K1 (Homo sapiens, UniProt Q92551); test: IP6K enzyme inhibitory assay (ADP-Glo Kinase Assay), human IP6K1; details: compound concentration 0.1 μM; read-out: ADP-Glo method inhibitory rate (%) human IP6K1
T2 construct: human IP6K1 (1-441) gene; GST; made in house; host or cells: Sf-9 insect cells
Experimental: as §1, §2

[3] = biological target: T3, human IP6K3 (Homo sapiens, UniProt Q96PC2); test: IP6K enzyme inhibitory assay (ADP-Glo Kinase Assay), human IP6K3; details: compound concentration 0.1 μM; read-out: ADP-Glo method inhibitory rate (%) human IP6K3
T3 construct: human IP6K3 (1-410) gene; made in house; host or cells: BL21 (DE3) Escherichia coli
T3 sequence (Q96PC2 1-410): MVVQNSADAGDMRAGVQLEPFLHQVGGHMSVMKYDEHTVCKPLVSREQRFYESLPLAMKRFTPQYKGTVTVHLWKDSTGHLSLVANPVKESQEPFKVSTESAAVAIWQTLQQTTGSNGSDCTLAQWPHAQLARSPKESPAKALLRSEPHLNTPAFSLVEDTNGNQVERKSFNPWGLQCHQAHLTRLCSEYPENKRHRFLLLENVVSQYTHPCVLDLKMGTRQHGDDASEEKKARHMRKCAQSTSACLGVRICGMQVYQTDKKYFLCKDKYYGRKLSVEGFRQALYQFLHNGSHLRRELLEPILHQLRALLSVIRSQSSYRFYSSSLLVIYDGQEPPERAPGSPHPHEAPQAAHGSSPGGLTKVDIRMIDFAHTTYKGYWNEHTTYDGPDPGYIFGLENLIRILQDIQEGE
Experimental: as §1, §2

T2 sequence (Q92551 whole entry): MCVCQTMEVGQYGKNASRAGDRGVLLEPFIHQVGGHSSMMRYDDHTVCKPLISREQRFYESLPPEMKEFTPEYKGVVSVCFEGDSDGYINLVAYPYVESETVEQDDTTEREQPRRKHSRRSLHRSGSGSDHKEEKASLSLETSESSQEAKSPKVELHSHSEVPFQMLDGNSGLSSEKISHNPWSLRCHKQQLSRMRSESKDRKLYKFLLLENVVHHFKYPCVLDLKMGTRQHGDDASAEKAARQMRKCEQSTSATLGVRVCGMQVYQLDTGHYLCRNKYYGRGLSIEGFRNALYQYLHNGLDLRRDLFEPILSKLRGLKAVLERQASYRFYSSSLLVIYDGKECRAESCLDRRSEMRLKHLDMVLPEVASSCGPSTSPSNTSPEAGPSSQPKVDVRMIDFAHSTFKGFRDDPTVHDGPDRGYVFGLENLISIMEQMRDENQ

| Structure (SMILES) | inhibition at 0.1 µM [1] [%] | inhibition at 0.1 µM [2] [%] | inhibition at 0.1 µM [3] [%] |
| --- | --- | --- | --- |
| O=C(O)c1ccc2c(c1)[C@]1(CC[C@@H](Oc3ncccc3Cl)CC1)C(=O)N2 [Example 24, (1r,4r)-4-((3-chloropyridin-2-yl)oxy)-2′-oxo-1′,2′-dihydrospiro[cyclohexane-1,3′-indole]-5′-carboxylic acid] | 92 | 86 | 92 |
| O=C(O)c1ccc2c(c1)[C@]1(CC[C@@H](Oc3ccc(C(F)(F)F)cn3)CC1)C(=O)N2 [Example 25, (1r,4r)-2′-oxo-4-((5-(trifluoromethyl)pyridin-2-yl)oxy)-1′,2′-dihydrospiro[cyclohexane-1,3′-indole]-5′-carboxylic acid] | 97 | 95 | 98 |
| Cc1ccc(C(F)(F)F)c(O[C@H]2CC[C@@]3(CC2)C(=O)Nc2ccc(C(=O)O)cc23)n1 [Example 26] | 97 | 98 | 92 |
| O=C(O)c1ccc2c(c1)[C@]1(CC[C@@H](Oc3ncc(C(F)(F)F)cc3F)CC1)C(=O)N2 [Example 27, (1r,4r)-4-((3-fluoro-5-(trifluoromethyl)pyridin-2-yl)oxy)-2′-oxo-1′,2′-dihydrospiro[cyclohexane-1,3′-indole]-5′-carboxylic acid] | 93 | 97 | 96 |
| O=C(O)c1ccc2c(c1)[C@]1(CC[C@@H](Oc3ncc(Cl)cc3C(F)(F)F)CC1)C(=O)N2 [Example 28, (1r,4r)-4-((5-chloro-3-(trifluoromethyl)pyridin-2-yl)oxy)-2′-oxo-1′,2′-dihydrospiro[cyclohexane-1,3′-indole]-5′-carboxylic acid] | 98 | 95 | 96 |
| O=C(O)c1ccc2c(c1)[C@]1(CC[C@@H](Oc3ncc(C(F)(F)F)cc3Cl)CC1)C(=O)N2 [Example 29, (1r,4r)-4-((3-chloro-5-(trifluoromethyl)pyridin-2-yl)oxy)-2′-oxo-1′,2′-dihydrospiro[cyclohexane-1,3′-indole]-5′-carboxylic acid] | 96 | 99 | 99 |
| O=C(O)c1ccc2c(c1)[C@]1(CC[C@@H](Oc3cc(OCc4ccccc4)ccn3)CC1)C(=O)N2 [Example 30, (1r,4r)-4-((4-(benzyloxy)pyridin-2-yl)oxy)-2′-oxo-1′,2′-dihydrospiro[cyclohexane-1,3′-indole]-5′-carboxylic acid] | 84 | 81 | 97 |
| O=C(O)c1ccc2c(c1)[C@]1(CC[C@@H](Oc3ncc(C4CC4)cc3C(F)(F)F)CC1)C(=O)N2 [Example 31, (1r,4r)-4-((5-cyclopropyl-3-(trifluoromethyl)pyridin-2-yl)oxy)-2′-oxo-1′,2′-dihydrospiro[cyclohexane-1,3′-indole]-5′-carboxylic acid] | 101 | 101 | 100 |
| Cc1ncccc1O[C@H]1CC[C@@]2(CC1)C(=O)Nc1ccc(C(=O)O)cc12 [Example 32, (1r,4r)-4-((2-methylpyridin-3-yl)oxy)-2′-oxo-1′,2′-dihydrospiro[cyclohexane-1,3′-indole]-5′-carboxylic acid] | 67 | 63 | 88 |
| Cc1cncc(O[C@H]2CC[C@@]3(CC2)C(=O)Nc2ccc(C(=O)O)cc23)c1 [Example 33, (1r,4r)-4-((5-methylpyridin-3-yl)oxy)-2′-oxo-1′,2′-dihydrospiro[cyclohexane-1,3′-indole]-5′-carboxylic acid] | 40 | 37 | 74 |
| Cc1ccc(O[C@H]2CC[C@@]3(CC2)C(=O)Nc2ccc(C(=O)O)cc23)cn1 [Example 34, (1r,4r)-4-((6-methylpyridin-3-yl)oxy)-2′-oxo-1′,2′-dihydrospiro[cyclohexane-1,3′-indole]-5′-carboxylic acid] | 76 | 63 | 91 |
| Cc1ccc(O[C@H]2CC[C@@]3(CC2)C(=O)Nc2ccc(C(=O)O)cc23)c(C)n1 [Example 35, (1r,4r)-4-((2,6-dimethylpyridin-3-yl)oxy)-2′-oxo-1′,2′-dihydrospiro[cyclohexane-1,3′-indole]-5′-carboxylic acid] | 96 | 82 | 98 |
| Cc1cc(C)c(O[C@H]2CC[C@@]3(CC2)C(=O)Nc2ccc(C(=O)O)cc23)cn1 [Example 36, (1r,4r)-4-((4,6-dimethylpyridin-3-yl)oxy)-2′-oxo-1′,2′-dihydrospiro[cyclohexane-1,3′-indole]-5′-carboxylic acid] | 92 | 72 | 95 |
| O=C(O)c1ccc2c(c1)[C@]1(CC[C@@H](Oc3cnc4c(c3)CCCO4)CC1)C(=O)N2 [Example 37, (1r,4r)-4-(3,4-dihydro-2H-pyrano[2,3-b]pyridin-6-yloxy)-2′-oxo-1′,2′-dihydrospiro[cyclohexane-1,3′-indole]-5′-carboxylic acid] | 50 | 51 | 82 |
| Cc1cc(C)nc(O[C@H]2CC[C@@]3(CC2)C(=O)Nc2ccc(C(=O)O)cc23)n1 [Example 38, (1r,4r)-4-((4,6-dimethylpyrimidin-2-yl)oxy)-2′-oxo-1′,2′-dihydrospiro[cyclohexane-1,3′-indole]-5′-carboxylic acid] | 47 | 55 | 86 |
| Cc1nc(O[C@H]2CC[C@@]3(CC2)C(=O)Nc2ccc(C(=O)O)cc23)nc(C)c1Cl [Example 39, (1r,4r)-4-((5-chloro-4,6-dimethylpyrimidin-2-yl)oxy)-2′-oxo-1′,2′-dihydrospiro[cyclohexane-1,3′-indole]-5′-carboxylic acid] | 74 | 80 | 95 |
| Cc1cc(O[C@H]2CC[C@@]3(CC2)C(=O)Nc2ccc(C(=O)O)cc23)nc(C)n1 [Example 40, (1r,4r)-4-((2,6-dimethylpyrimidin-4-yl)oxy)-2′-oxo-1′,2′-dihydrospiro[cyclohexane-1,3′-indole]-5′-carboxylic acid] | 18 | 14 | 49 |
| Cc1ccccc1O[C@H]1CC[C@@]2(CC1)C(=O)Nc1ccc(C(=O)O)cc12 [Example 41, (1r,4r)-4-(2-methylphenoxy)-2′-oxo-1′,2′-dihydrospiro[cyclohexane-1,3′-indole]-5′-carboxylic acid] | 93 | 93 | 98 |
| Cc1cccc(O[C@H]2CC[C@@]3(CC2)C(=O)Nc2ccc(C(=O)O)cc23)c1 [Example 42, (1r,4r)-4-(3-methylphenoxy)-2′-oxo-1′,2′-dihydrospiro[cyclohexane-1,3′-indole]-5′-carboxylic acid] | 90 | 81 | 97 |
| Cc1ccc(O[C@H]2CC[C@@]3(CC2)C(=O)Nc2ccc(C(=O)O)cc23)cc1 [Example 43, (1r,4r)-4-(4-methylphenoxy)-2′-oxo-1′,2′-dihydrospiro[cyclohexane-1,3′-indole]-5′-carboxylic acid] | 99 | 98 | 100 |
